From patent US8420681B2, “Dioxo-imidazolidine derivatives, which inhibit the enzyme SOAT-1, and pharmaceutical and cosmetic compositions containing them” (Galderma Research & Development, priority 2009, dated 2013) come the findings set out here.

This assay has as its target T1, enzyme ACAT-1 (Homo sapiens, UniProt P35610).
T1 construct: endogenous in cells; host or cells: HepG2
T1 sequence (P35610 1-550): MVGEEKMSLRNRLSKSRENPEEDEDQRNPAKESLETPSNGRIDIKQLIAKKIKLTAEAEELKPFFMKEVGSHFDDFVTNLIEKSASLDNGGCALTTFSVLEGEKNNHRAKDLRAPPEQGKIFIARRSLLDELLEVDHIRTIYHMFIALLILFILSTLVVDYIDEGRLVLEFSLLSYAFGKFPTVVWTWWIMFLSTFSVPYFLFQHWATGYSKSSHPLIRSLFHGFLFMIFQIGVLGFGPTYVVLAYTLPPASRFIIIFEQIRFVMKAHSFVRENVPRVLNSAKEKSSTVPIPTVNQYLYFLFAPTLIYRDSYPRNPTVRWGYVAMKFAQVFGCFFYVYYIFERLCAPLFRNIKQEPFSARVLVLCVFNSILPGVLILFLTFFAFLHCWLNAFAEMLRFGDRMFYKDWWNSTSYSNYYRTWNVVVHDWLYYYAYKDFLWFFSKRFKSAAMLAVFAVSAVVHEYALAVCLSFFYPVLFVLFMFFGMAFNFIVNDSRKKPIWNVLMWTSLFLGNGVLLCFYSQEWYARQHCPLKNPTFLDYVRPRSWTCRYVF
Kind of assay: HepG2 NBD-cholesterol fluorescence test of inhibitory activity towards ACAT-1 (SOAT-1). It is filed as cell-based. The conditions noted are these: HepG2 cells, NBD-cholesterol 1 μg/ml, incubation 6 hours at 37° C., fluorescence read (490/540 nm). As to the method:
The compounds (I) according to the invention, and also the pharmaceutically acceptable salts, solvates and/or hydrates thereof, have inhibitory properties on the enzyme SOAT-1. This inhibitory activity on the enzyme SOAT-1 is measured according to a HepG2 primary enzymatic test, as described in Example 23.
The compounds of formula (I) according to the invention were subjected to a test for evaluating their inhibitory activity towards the enzyme ACAT-1, inspired by the following publication: “Identification of ACAT1- and ACAT2-specific inhibitors using a novel, cell based fluorescence assay: individual ACAT uniqueness”, J. Lipid. Res. (2004) vol. 45, pages 378-386.
The principle of this test is based on the use of NBD-cholesterol, a cholesterol analogue whose fluorescence depends on its environment. When this molecule is in a polar environment, it is weakly fluorescent, whereas in a non-polar environment, it is strongly fluorescent. Free NBD-cholesterol becomes inserted in cell membranes and is weakly fluorescent in this polar environment. When NBD-cholesterol is esterified with ACAT, the NBD-cholesterol ester enters non-polar lipid droplets and is then strongly fluorescent.
The method below is applied: HepG2 cells are incubated in the presence of NBD-cholesterol (1 μg/ml) and of the test compound of formula (I) in black 96-well transparent-bottomed plates, at a rate of 30 000 cells per well. After incubation for 6 hours at 37° C. under 5% CO2, the medium is removed by turning upside-down and the cells are washed with twice 100 μl of PBS. After addition of 50 μl of lysis buffer (10 mM NaPO4, 1% Igepal), the plates are shaken for 5 minutes and the fluorescence is read (excitation at 490 nm, emission at 540 nm) on a Fusion machine (Perkin-Elmer).
As usually defined, the IC50 is the concentration that inhibits the measured activity by half. The molecule `CCC(NC(=O)CN1C(=O)N(c2ccc(C)cc2)C2(CCCCC2)C1=O)c1ccccc1` (stereo not shown) [Compound 4, 2-(2,4-dioxo-1-p-tolyl-1,3-diaza-spiro[4.5]dec-3-yl)-N-(1-phenyl-propyl)acetamide] gave an IC50 of 50 nM.

In turn, `CC[C@H](NC(=O)CN1C(=O)N(c2ccc(C)cc2)C2(CCCCC2)C1=O)c1ccccc1` [Compound 6, 2-(2,4-dioxo-1-p-tolyl-1,3-diaza-spiro[4.5]dec-3-yl)-N-((S)-1-phenylpropyl)-acetamide] registered an IC50 of 36 nM.

`CCCC(NC(=O)CN1C(=O)N(c2ccc(C)cc2)C2(CCCCC2)C1=O)c1ccccc1C` (stereo not shown) [Compound 8, 2-(2,4-dioxo-1-p-tolyl-1,3-diaza-spiro[4.5]dec-3-yl)-N-(1-o-tolyl-butyl)acetamide] registered an IC50 of 31 nM.

Molecule `Cc1ccc(N2C(=O)N(CC(=O)NC(c3ccccc3C)C(C)C)C(=O)C23CCCCC3)cc1` (stereo not shown) [Compound 9, 2-(2,4-dioxo-1-p-tolyl-1,3-diaza-spiro[4.5]dec-3-yl)-N-(2-methyl-1-o-tolylpropyl)-acetamide] came in with a 50% inhibitory concentration (IC50) of 100 nM.

`CCC(NC(=O)CN1C(=O)N(c2ccc(C)cc2)C2(CCCCC2)C1=O)c1ccc(C)cc1` (stereo not shown) [Compound 13, 2-(2,4-dioxo-1-p-tolyl-1,3-diaza-spiro[4.5]dec-3-yl)-N-(1-p-tolyl-propyl)acetamide] returned an IC50 of 60 nM.

Molecule `CCC(NC(=O)CN1C(=O)N(c2ccc(C)cc2)C2(CCCCC2)C1=O)c1cccc(C(F)(F)F)c1` (stereo not shown) [Compound 17, 2-(2,4-dioxo-1-p-tolyl-1,3-diaza-spiro[4.5]dec-3-yl)-N-[1-(3-trifluoromethyl-phenyl)propyl]-acetamide] registered a 50% inhibitory concentration (IC50) of 9 nM.

Molecule `Cc1ccc(N2C(=O)N(CC(=O)NC(c3ccccc3)C(C)C)C(=O)C23CCCCC3)cc1` (stereo not shown) [Compound 19, 2-(2,4-dioxo-1-p-tolyl-1,3-diaza-spiro[4.5]dec-3-yl)-N-(2-methyl-1-phenylpropyl)-acetamide] showed an IC50 of 23 nM.
